Results reported in patent US20220220565A1, “METHODS AND COMPOSITIONS FOR TREATING MELANOMA” (INSERM (INSTITUT NATIONAL DE LA SANTÉ ET DE LA RECHERCHE …, priority 2019, published 2022).
Entries after “also recorded” stand apart in the source; their conditions may differ.

Assays:
[1] = system: SKMel28 cells; test: In vitro scratch assay; type: cell-based, human; conditions: rhPTX3 added to wounded monolayers of PTX3-negative cells
Protocol: (§1) Transwell inserts and treated with human TNFa (10 ng.ml-1) for 16 h. Melanoma cells were allowed to migrate for 6 h or 16 h and migrated cells were visualized and quantified as before. Pictures of five random fields were captured for quantification using NIH ImageJ analysis software. For scratch assays, melanoma cells were grown approximately 80% confluence in 6-well plates. Wounds were generated using a sterile 200 μl pipette tip across each well. Following treatment with rhPTX3 or CM, pictures of four random fields were captured using an imaging station and the number of migrated cells in wounded area was counted with NIH ImageJ analysis software.

[2] = system: 1205Lu cells; test: Transendothelial migration on monolayers of TNFα-activated HUVECs; type: cell-based, human; conditions: rhPTX3 100 ng.ml-1, 6 h
Protocol: (§2) Serum-stimulated chemotaxis, invasion and transendothelial migration were monitored using modified Boyden chambers (8 μm pores, Sigma) as described before. For invasion assays, the upper side of the filter was coated with 0.5 mg.ml-1 matrigel (Corning, N.Y., USA). Migrated cells were stained with crystal violet and counted (four fields randomly per well). For transendothelial migration, 105 HUVECs were grown in the upper chamber of gelatin-coated
as §1

[3] = system: 1205Lu cells; test: Matrigel invasion assay; type: cell-based, human; conditions: siPTX3-transfected cells, rhPTX3 100 ng.ml-1
Protocol: as §2, §1

[4] = system: A375 cells; test: Serum-stimulated migration (modified Boyden chamber / Transwell); type: cell-based, human; conditions: siPTX3-transfected cells, rhPTX3 100 ng.ml-1
Protocol: as §2, §1

[5] = system: 1205Lu cells; test: as above; type: cell-based, human
Protocol: as §2, §1

[6] = system: PTX3; test: PTX3 expression and secretion (immunoblot of lysates and CM); type: cell-based, human; conditions: 1205Lu cells treated with IKK inhibitor
Protocol: (§3) Immunohistochemistry and immunoblot analysis were performed as described before. IHC analysis was performed on melanoma tissue microarrays (US Biomax, MD, USA) using PTX3 antibody (HPA069320, Sigma-Aldrich; 1:50). For immunoblotting, the following antibodies were used at 1:1,000: SPARC (Bio-Techne), PTX3 (Enzo Life Sciences, Switzerland), HSP90, HSP60, TLR4, Fibronectin, ERK2 (Santa Cruz Biotechnology), MITF (Thermo Fisher Scientific), TWIST1 (Abcam, UK), SNAIL, phospho-IKKα/β (Ser176/180), NF-κB p65, phospho-NF-κB p65 (Ser536), I[…]B[…] (L35A5), I[…]B[…] (Ser32/36), IKKα, IKKβ, MYD88, phospho-AKT (Ser473), phospho-ERK1/2 (Thr202/Tyr204) (Cell Signaling Technology, MA, USA).

[7] = system: melanoma cells; test: Cell migration upon IKK targeting; type: cell-based, human; conditions: IKK targeting in melanoma cells
Protocol: as §2

[8] = system: 501Mel control cells; test: Cell migration of control cells; type: cell-based, human; conditions: IKK inhibition or TWIST1 depletion
Protocol: as §2

[9] = system: PTX3-expressing 501Mel cells; test: PTX3-mediated cell migration; type: cell-based, human; conditions: data not shown
Protocol: as §2

[10] = system: EMT factors TWIST1 and SNAIL; test: EMT factor expression (immunoblot); type: cell-based, human; conditions: IKK targeting in melanoma cells
Protocol: as §3

[11] = system: 1205Lu-Luc+ cells; test: In vitro cell migration of shRNA-transduced cells (Boyden chamber); type: cell-based, human; conditions: among shPTX3-1 to 5; data not shown
Protocol: Negative control, PTX3 siRNA duplexes were designed by Thermo Fisher Scientific. MITF (sc-35934), MYD88 (sc-35986) and TWIST1 (sc-38604) siRNAs were from Santa Cruz Biotechnology (TX, USA). IKKα, IKKβ, and TLR4 siRNAs were from Dharmacon (CO, USA). Transfection of siRNA was carried out using Lipofectamine RNAiMAX (Thermo Fisher Scientific), at a final concentration of 25 or 50 nM. Unless stated otherwise, cells were assayed 3 days post transfection. Lentiviral vectors for stable knockdown of PTX3 (NM_002852) in melanoma cells were TRC1.5-pLKO.1-puro vectors containing a s (shPTX3-1 to 5) (Genomic center, University of Minnesota, USA). Lentiviral, packaging (psPAX2) and enveloppe (pMD2.0G) vectors were transfected into HEK293T cells and virus-containing supernatant fractions were harvested after 72 h. The supernatant fractions were filtered and used to infect bioluminescent 1205Lu cells (1205Lu-Luc+) that were described before. Transduced cells were selected with 2 μg/ml puromycin for 3 weeks. The efficiency of PTX3 knockdown was assessed by immunoblotting and analysis of in vitro cell migration using modified Boyden chambers. […]
Serum-stimulated chemotaxis, invasion and transendothelial migration were monitored using modified Boyden chambers (8 μm pores, Sigma) as described before. […] Migrated cells were stained with crystal violet and counted (four fields randomly per well). […]

[12] = system: 1205Lu-Luc+ cells; test: Experimental lung metastasis (long-term lung colonization) by bioluminescent melanoma cells; type: in vivo, nude mice
Protocol: All mouse experiments were carried out in accordance with the Institutional Animal Care and local ethics committees. For experimental lung metastasis studies, 5-week-old female nude mice (Harlan, IN, USA) were intravenously injected with 1205Lu Luc+cells (1×106) that were transduced with a non targeting shRNA lentivirus (shCTRL) or a PTX3 targeting shRNA lentivirus (shPTX3-5). Images were acquired using a Photon Imager (Biospace Lab, France) on mice injected i.p with 50mg.kg-1 D-luciferin (PerkinElmer, MA, USA). Lung metastasis was monitored and quantified using BLI [12]. In a second set of experiments, short-term lung colonization assays were performed with Cell Tracker Orange-stained 501Mel cells stably expressing PTX3 or not. Cells were intravenously injected in 5-week-old female nude mice that were sacrificed either 30 min or 24 h later. Lungs were perfused with PBS, fixed in 4% paraformaldehyde, OCT-embedded, cryosectioned, immunostained and imaged using a confocal microscope as described.

recombinant PTX3: recombinant human PTX3 (Bio-Techne)
migration in wound area [1]: enhanced the migration | rescue of transendothelial migration of PTX3-depleted cells [2]: rescued | rescue of invasiveness of PTX3-depleted cells [3]: restored the impaired invasiveness | rescue of migration of PTX3-depleted cells [4]: rescued the migratory ability | rescue of migration by recombinant PTX3 in cells treated with a MYD88 inhibitory peptide ([5]; data not shown): failed to rescue migration | rescue of migration of PTX3-depleted cells ([5]; siPTX3-transfected cells, rhPTX3 100 ng.ml-1): rescued the migratory ability; also recorded: restored the migration | rescue of migration of TLR4 silenced cells ([5]; siTLR4-transfected cells stimulated with rhPTX3 for 4 h): ineffective to restore the migration

Cc1ccc2nc(NCCN)c3ncc(C)n3c2c1 [BMS345541]
autocrine production of PTX3 [6]: impaired the autocrine production of PTX3 | cell migration [7]: reduced | migration of control cells [8]: also reduced | PTX3-mediated cell migration [9]: reduction of PTX3-mediated cell migration | EMT factors levels [10]: reduced EMT factors levels

shPTX3-5: lentiviral shRNA for stable knockdown of PTX3 (TRC1.5-pLKO.1-puro vector), SEQ ID NO: 1 (DNA CCGGGAGGAGCTCAGTATGTTTCATCTCGAGATGAAACATACTGAGCTCCTCTTTTTTG)
reduction of cell migration compared to shCtrl [11]: most efficient in reducing cell migration | arrest of injected cells into the lungs (BLI) ([12]; 15 min after tail vein injection, vs shCTRL): equally arrested into the lungs | lung colonization (BLI) ([12]; during 15 days after tail vein injection, vs shCTRL): dramatic reduction in lung colonization | reduction in experimental lung metastasis (ex vivo BLI) ([12]; endpoint of the assay, stable PTX3 knockdown vs control cells): 6 fold
